Measurements as given in patent EP2511272B1, “Synthetic analogues of abscisic acid with anti-inflammatory and insulin release stimulation effects on human cells” (Universita' degli Studi di Genova, priority 2011, dated 2012).

Tested on: human granulocytes
Test: Determination of intracellular cAMP levels (inhibition of ABA-induced cAMP increase)
Assay type: cell-based
Description: Human granulocytes, after being incubated overnight (ON) in DMEM/F12 supplemented with 10% of foetal bovine serum (FCS), penicillin (50 units/ml) and streptomycin (50 µg/ml) (DMEM/F12 complete), were centrifuged at 200xg for 5 min and were then resuspended in HBSS (Hanks' Balanced Salt Solution) with calcium and magnesium (15 x 10^6 cells /200 µl) and preincubated for 5 minutes at 25 °C in the presence of 10 µM of phosphodiesterase inhibitor 4-[(3-butoxy-4-methoxyphenyl)-methyl]-2-imidazolidinone (Ro-20-1724). Two hundred (200) µl of suspension were then drawn and were incubated for 1 minute with 1 µM ABA (Sigma-Aldrich) either alone, or in the presence of decreasing concentrations (from 50 µM to 0.01 nM) of test compounds obtained according to the preceding examples. The reaction was terminated by the addition of 13 µl of perchloroacetic acid (PCA) to the end concentration of 0.6 M at 4 °C.
The cell lysates were centrifuged for 5 min at 17,000 x g at 4 °C and the supernatant was adjusted at pH 7.5 with 3 M potassium carbonate (K2CO3). The reaction led to the development of gas CO2 and the formation of a white precipitate of potassium perchlorate (KClO4), which was removed by a 5-minute centrifugation at 17,000xg at 4 °C.
Intracellular concentration of cAMP was determined by means of the competitive radioimmunological test [^3H]cAMP assay system (Amersham, GE Healthcare), following manufacturer's instructions..
The experiments were carried out three times, in triplicate.
Tests were carried out on human granulocytes according to the above explained procedure, in which the production of cAMP was compared to a group of control cells in case of treatment with ABA 1 µM and with ABA 1 µM + tested compound 50 µM.

Compound: CC(=C/C(=O)O)/C=C/C1(O)C(C)(C)CC(=O)C2OC21C (single isomer, unassigned) [Example 1, trans, 2'α,3'α-dihydro-2'α,3'α-epoxyabscisic acid]
- inhibition at 50 µM (ABA 1 µM + tested compound 50 µM, read-out: inhibition (production of cAMP)): 100%
- inhibition at 10 pM (cAMP increase induced by 1 µM ABA, compound 0.01 nM): 0%
- inhibition at 0.0001 µM (cAMP increase induced by 1 µM ABA, compound 0.1 nM): 25%
- inhibition at 0.001 µM (cAMP increase induced by 1 µM ABA, compound 1 nM): 57%
- inhibition at 0.1 µM (cAMP increase induced by 1 µM ABA, compound 100 nM): 100%
- inhibition at 1 µM (cAMP increase induced by 1 µM ABA, compound 1 µM): 100%
- inhibition at 5 µM (cAMP increase induced by 1 µM ABA, compound 5 µM): 100%
- inhibition at 10 µM (cAMP increase induced by 1 µM ABA, compound 10 µM): 100%
- IC50 (increase in cAMP concentration induced by 1 µM ABA): ~1 nM
